# Values joined by “and” are separate entries in the source; they are usually repeats but may differ in a detail not shown here. Equal entries are not always repeated. Where two headings read alike, the source gives them in different places.
# Test system: C. elegans
# [1] = Table S2, C. elegans SS assay, 110 μM, averages of 4 data points
# [2] = Table S2, C. elegans SS assay, 110 μM, 24 h, averages of 4 data points
Compound,Percentage of motility inhibition 0 h [1],Percentage of motility inhibition 24 h [2],"Inhibition (%) 110 μM (24 h) (C. elegans L4 motility, 110 μM, 24 h, mean ± SD of four experiments)",Percentage of motility inhibition 0 h (110 μM),"Percentage of motility inhibition 24 h (24 h, 110 µM)"
COc1ccc(C[C@H](N)C(=O)N[C@H]2[C@@H](O)[C@H](n3cnc4c(N(C)C)ncnc43)O[C@@H]2CO)cc1.Cl.Cl [Puromycin (D ihydrochloride)],13%,14%,–,–,–
"CN1CCCN=C1/C=C/c1cccs1.O=C(O)C(O)C(O)C(=O)O [Pyrantel tartrate, reference compound]",85%,61%,26 ± 1%,–,–
O=c1c(O[C@@H]2O[C@H](CO[C@@H]3O[C@H](CO)[C@@H](O)[C@H](O)[C@H]3O)[C@@H](O)[C@H](O)[C@H]2O)c(-c2ccc(O)c(O)c2)oc2cc(O)cc(O)c12 [Quercetin 3‐gentiobioside],42%,0%,–,–,–
O.O.O=c1c(O)c(-c2ccc(O)c(O)c2)oc2cc(O)cc(O)c12 [Quercetin (dihydrate)],0%,3%,–,–,–
C=C[C@H]1CN2CC[C@H]1C[C@@H]2[C@@H](O)c1ccnc2ccc(OC)cc12.Cl.O [Quinidine hydrochloride monohydrate],40%,6%,–,–,–
C=C[C@H]1CN2CC[C@H]1C[C@H]2[C@H](O)c1ccnc2ccc(OC)cc12.Cl.O.O [Quinine (hydrochloride dihydrate)],–,8%,–,–,–
C=C[C@H]1C[N@@]2CC[C@H]1C[C@H]2[C@H](O)c1ccnc2ccc(OC)cc12 [Quinine],–,0% and 8% and 1%,–,–,–
C[C@@H]1O[C@@H](O[C@H]2[C@H](O[C@H]3[C@H](O[C@H]4CC[C@]5(C)[C@H]6CC=C7[C@@H]8CC(C)(C)CC[C@]8(C(=O)O)CC[C@@]7(C)[C@]6(C)CC[C@H]5C4(C)C)OC[C@H](O)[C@@H]3O)O[C@H](CO)[C@@H](O)[C@@H]2O)[C@H](O)[C@H](O)[C@H]1O [Raddeanin A],4%,6%,–,–,–
C[C@@H]1O[C@@H](O[C@H]2[C@H](O[C@H]3[C@H](O[C@H]4CC[C@]5(C)[C@H]6CC=C7[C@@H]8CC(C)(C)CC[C@]8(C(=O)O[C@@H]8O[C@H](CO[C@@H]9O[C@H](CO)[C@@H](O[C@@H]%10O[C@@H](C)[C@H](O)[C@@H](O)[C@H]%10O)[C@H](O)[C@H]9O)[C@@H](O)[C@H](O)[C@H]8O)CC[C@@]7(C)[C@]6(C)CC[C@H]5C4(C)C)OC[C@H](O)[C@@H]3O)O[C@H](CO)[C@@H](O)[C@@H]2O)[C@H](O)[C@H](O)[C@H]1O [Raddeanoside R8],3%,0%,–,–,–
Cl.O=C(c1ccc(OCCN2CCCCC2)cc1)c1c(-c2ccc(O)cc2)sc2cc(O)ccc12 [Raloxifene (hydrochloride)],32%,0%,–,–,–
Cc1nnc(C(=O)NC(C)(C)c2nc(C(=O)NCc3ccc(F)cc3)c([O-])c(=O)n2C)o1.[K+] [Raltegravir (potassium salt)],3%,4%,–,–,–
COC(=O)[C@H]1[C@H]2C[C@H]3c4[nH]c5ccccc5c4CCN3C[C@H]2CC[C@@H]1O.Cl [Rauwolscine (hydrochloride)],7%,0%,–,–,–
C=C1C[C@@]23CC[C@H]4[C@@](C)(CCC[C@@]4(C)C(=O)O[C@@H]4O[C@H](CO)[C@@H](O)[C@H](O)[C@H]4O[C@@H]4O[C@H](CO)[C@@H](O)[C@H](O)[C@H]4O)[C@@H]2CC[C@]1(O[C@@H]1O[C@H](CO)[C@@H](O)[C@H](O[C@@H]2O[C@H](CO)[C@@H](O)[C@H](O)[C@H]2O)[C@H]1O[C@@H]1O[C@H](CO)[C@@H](O)[C@H](O)[C@H]1O)C3 [Rebaudioside D],11%,3%,–,–,–
C=C1C[C@@]23CC[C@H]4[C@@](C)(CCC[C@@]4(C)C(=O)O[C@@H]4O[C@H](CO)[C@@H](O)[C@H](O[C@@H]5O[C@H](CO)[C@@H](O)[C@H](O)[C@H]5O)[C@H]4O[C@@H]4O[C@H](CO)[C@@H](O)[C@H](O)[C@H]4O)[C@@H]2CC[C@]1(O[C@@H]1O[C@H](CO)[C@@H](O)[C@H](O[C@@H]2O[C@H](CO)[C@@H](O)[C@H](O)[C@H]2O)[C@H]1O[C@@H]1O[C@H](CO)[C@@H](O)[C@H](O)[C@H]1O)C3 [Rebaudioside M],7%,0%,–,–,–
C[C@]1(O[C@H]2O[C@H](CO)[C@H](O)[C@H](O)[C@H]2O)C[C@@H](O)[C@@H]2C=CO[C@@H](O[C@@H]3O[C@H](CO)[C@@H](O)[C@H](O)[C@H]3O)[C@@H]21 [Rehmannioside C],0%,8%,–,–,–
OCC1=C[C@@H](O)[C@]2(O[C@@H]3O[C@H](CO)[C@@H](O)[C@H](O)[C@H]3O[C@@H]3O[C@H](CO)[C@@H](O)[C@H](O)[C@H]3O)C=CO[C@@H](O[C@@H]3O[C@H](CO)[C@@H](O)[C@H](O)[C@H]3O)[C@H]12 [Rehmannioside D],11%,35%,–,–,–
CC1(C)[C@H]2O[C@H]2[C@H]2[C@](C)(O)[C@@H]3CC[C@@H]4[C@@H](O)[C@@]3(C[C@@H](O)[C@@]21O)C[C@@]4(C)O [Rhodojaponin III],5%,2%,–,–,–
CC(=O)O[C@@H]1C[C@]23C[C@@](C)(O)[C@H](CC[C@H]2[C@@](C)(O)[C@@H]2[C@@H]4O[C@@H]4C(C)(C)[C@@]12O)[C@H]3O [Rhodojaponin II],4%,8%,–,–,–

Compound,Percentage of motility inhibition 0 h [1],Percentage of motility inhibition 24 h [2],"Inhibition (%) 110 μM (24 h) (C. elegans L4 motility, 110 μM, 24 h, mean ± SD of four experiments)",Percentage of motility inhibition 0 h (110 μM),"Percentage of motility inhibition 24 h (24 h, 110 µM)"
C=CCCN1C[C@@H]2C[C@H](C1)c1cccc(=O)n1C2 [Rhombifoline],0%,0%,–,–,–
NC[C@H]1O[C@H](O[C@H]2[C@H](O[C@@H]3O[C@H](CO)[C@@H](O)[C@H]3O)[C@@H](O)[C@H](N)C[C@@H]2N)[C@H](N)[C@@H](O)[C@@H]1O.O=S(=O)(O)O [Ribostamycin (sulfate)],33%,13%,–,–,–
CC(N)C12CC3CC(CC(C3)C1)C2.Cl (centres unmarked) [Rimantadine (hydrochloride)],45%,25%,–,–,–
C=C(C)[C@@H]1CC[C@]2(C)[C@H](CC=C3[C@@H]4[C@@H](C)[C@H](C)CC[C@]4(C)CC[C@]32C)[C@@]1(C)CCC(=O)O [Roburic acid],11%,15%,–,–,–
C[C@@H]1CC[C@]2(C(=O)O[C@@H]3O[C@H](CO)[C@@H](O)[C@H](O)[C@H]3O)CC[C@]3(C)C(=CC[C@@H]4[C@@]5(C)C[C@@H](O)[C@H](O)C(C)(C)[C@@H]5CC[C@]43C)[C@@H]2[C@]1(C)O [Rosamultin],21%,1%,–,–,–
COc1cc2c(cc1OC)[C@@H]1Cc3ccc(OC)c(OC)c3CN1CC2 [Rotun dine],–,–,–,0%,4%
COc1cc2c(cc1OC)[C@@H]1Cc3ccc(OC)c(OC)c3CN1CC2 [Rotundine],–,12%,–,–,–
C=C(C(=O)O)[C@H]1CC[C@H](C)[C@@H]2CC(=O)C(C)=C2C1 [Rupestonic acid],0%,8%,–,–,–
C[C@@H]1O[C@@H](OC[C@H]2O[C@@H](Oc3c(-c4ccc(O)c(O)c4)oc4cc(O)cc(O)c4c3=O)[C@H](O)[C@@H](O)[C@@H]2O)[C@H](O)[C@H](O)[C@H]1O [Ruti n],33%,10%,–,–,–
C[C@@H]1O[C@@H](OC[C@H]2O[C@@H](Oc3c(-c4ccc(O)c(O)c4)oc4cc(O)cc(O)c4c3=O)[C@H](O)[C@@H](O)[C@@H]2O)[C@H](O)[C@H](O)[C@H]1O.O [Rutin (hydrate)],2%,8%,–,–,–
C[C@@H]1O[C@@H](OC[C@H]2O[C@@H](Oc3c(-c4ccc(O)c(O)c4)oc4cc(O)cc(O)c4c3=O)[C@H](O)[C@@H](O)[C@@H]2O)[C@H](O)[C@H](O)[C@H]1O.O.O.O [Rutin (trihydrate)],2%,9%,–,–,–
COc1ccc(-c2oc3c(CC=C(C)C)c(O)cc(O)c3c(=O)c2O[C@@H]2O[C@@H](C)[C@H](O)[C@@H](O)[C@H]2O[C@@H]2O[C@H](CO)[C@@H](O)[C@H](O)[C@H]2O)cc1 [Sagittatoside A],43%,12%,–,–,–
CC1(C)CC[C@@]2(CO)C(=C3C=C[C@@H]4[C@@]5(C)CC[C@H](O)[C@@](C)(CO)[C@@H]5CC[C@@]4(C)[C@]3(C)C[C@H]2O)C1 [Saikogenin D],27%,14%,–,–,–
CC1(C)CC[C@]23CO[C@@]4(C=C[C@@H]5[C@@]6(C)CC[C@H](O)[C@@](C)(CO)[C@@H]6CC[C@@]5(C)[C@]4(C)C[C@@H]2O)[C@@H]3C1 [Saikogenin F],53%,46%,–,–,–
C[C@H]1O[C@@H](O[C@H]2CC[C@@]3(C)[C@@H](CC[C@]4(C)[C@@H]3C=CC3=C5CC(C)(C)CC[C@]5(CO)[C@H](O)C[C@]34C)[C@]2(C)CO)[C@H](O)[C@@H](O[C@@H]2O[C@H](CO)[C@@H](O)[C@H](O)[C@H]2O)[C@H]1O [Saikosaponin B2],19%,11%,–,–,–
CO[C@@H]1C=C2[C@@H]3CC(C)(C)CC[C@]3(CO)[C@H](O)C[C@@]2(C)[C@]2(C)CC[C@H]3[C@](C)(CO)[C@@H](O[C@@H]4O[C@H](C)[C@H](O)[C@H](O[C@@H]5O[C@H](CO)[C@@H](O)[C@H](O)[C@H]5O)[C@H]4O)CC[C@]3(C)[C@@H]12 [Saikosaponin B4],13%,36%,–,–,–
C[C@@H]1O[C@@H](O[C@@H]2[C@H](O)[C@@H](O)[C@H](O[C@H]3CC[C@@]4(C)C(CC[C@]5(C)C4C=C[C@]46OC[C@@]7(CCC(C)(C)CC74)[C@@H](O)C[C@]65C)C3(C)C)O[C@@H]2CO[C@@H]2O[C@H](CO)[C@@H](O)[C@H](O)[C@H]2O)[C@H](O)[C@H](O)[C@H]1O (some centres unmarked) [Saikosaponin C],24%,0%,–,–,–
